Measured values from patent US10905691B2, “Use of triazolo(4,5-d)pyrimidine derivatives for prevention and treatment of bacterial infection” (Universite de Liege, priority 2016, dated 2021).
≈ marks a conversion by molar mass, not a printed value.

Legend:
[1] = tested on: Staphyloccocus epidermidis (ATCC 35984) biofilm; experiment: Biofilm formation (crystal violet, 24-well plate); assay type: cell-based, Staphylococcus epidermidis; conditions: 38 μM; 20 hours; FIG. 10B
Procedure: Staphyloccocus aureus (ATCC 25904) or Staphyloccocus epidermidis (ATCC 35984) were grown overnight in TSB medium, before being diluted 100 fold in fresh TSB, and incubated aerobically at 37° C. until bacteria culture reached an OD600 of 0.6 (corresponding to approximately 1-3×10^8 CFU/ml). Bacteria cultures were then diluted to 1×10^4 CFU/ml in fresh TSB. Aliquots of 800 μl diluted bacteria suspensions were distributed in each well of a 24-well plate. Bacteria were allowed to adhere for 4 hours under static conditions at 37° C. After removing the media, wells were rinsed 2 times with PBS to eliminate planktonic bacteria and re-filled with TSB supplemented with 0.5% glucose containing Fluometacyl at desired concentration or DMSO alone (Ctrl). The 24-well plates were incubated at 37° C. for 20 hours. Wells were then washed and stained with 0.5% (w/v) crystal violet for 30 minutes and rinsed with PBS 4 times. The dye was solubilized by adding 20% acetic acid (v/v in water) before reading absorbance at 595 nm. FIG. 10A and FIG. 10B show Fluometacyl effect on S. aureus and S. epidermidis biofilm formation respectively at all concentrations tested.

S. aureus ATCC 25904 = experiment: MIC determination (EUCAST, Mueller-Hinton broth); assay type: cell-based; conditions: Staphylococcus aureus, ATCC25904
Procedure: (§1) Further experiments were conducted using different strains of S. aureus, as clinically relevant Gram-positive bacterial strains: ATCC 25904, ATCC 6538, methilcillin-resistant S. aureus (MRSA) ATCC BAA-1556, Glycopeptide intermediate-resistant (GISA) S. aureus Mu-50 (ATCC 700695) in order to determine the Minimal Inhibitory Concentration (MIC) which is the minimal concentration required to prevent bacterial growth; the Minimal Bactericidal Concentration (MBC) which determines the lowest concentration at which an antimicrobial agent kill a particular microorganism and a Minimum Duration for killing 99.9% bacteria (MDK99.9) which is a tolerance metric according to the EUCAST.
(§2) MIC determination: A single colony selected from the different strains of S. aureus is resuspended and cultured in the appropriate medium overnight (O/N) in aerobic conditions (37° C. with 220 rpm shaking), next day a 1:100 inoculum in Mueller-Hinton broth (MHB) was incubated in aerobic conditions for 3 hr (OD=0.08-0.1) and an inoculum of 1:300 dilution, corresponding to 3×10^5 CFU/ml, was incubated in presence or absence of different concentrations of Triafluocyl in 1% DMSO. After O/N growth the OD of each culture was measured at 600 nm in a spectrophotometer (OD600). The MIC represents the concentration at which there is no visible growth of bacteria, i.e. ΔOD at 600 nm equal to zero (blank is the medium alone). MIC for Triafluocyl against S. aureus ATCC 25904, ATCC 6538, methilcillin-resistant S. aureus (MRSA) ATCC BAA-1556, Glycopeptide intermediate-resistant (GISA), and S. aureus Mu-50 (ATCC 700695) were 20, 20, 15, and 20 μg/ml, respectively.
(§3) The Minimal Inhibitory Concentration (MIC) and the Minimal Bactericidal Concentration (MBC) of Fluometacyl were determined on several gram-positive strains (Table 2) following EUCAST (European Committee on Antimicrobial susceptibility Testing) recommendations.
(§4) For MIC determination a single colony was resuspended and cultured in the appropriate bacteria-specific medium (TSB: Tryptic Soy Broth for S. aureus atcc 25904 and S. epidermidis and BHI: brain-heart infusion medium for all the other strains) overnight (O/N) in aerobic conditions (37° C. with 220 rpm shaking), next day a 1:100 inoculum was incubated in Mueller-Hinton broth (MHB) in aerobic conditions for 3 hr (OD600=0.08-0.1). A further inoculum, 1:300 dilution of the MHB culture, corresponding to 3×10^5 CFU/ml, was grown in presence or absence of different concentrations of Fluometacyl, 1% DMSO in MHB for 20 hr.

[2] = tested on: methilcillin-resistant S. aureus (MRSA) ATCC BAA-1556; experiment: MIC determination (EUCAST, Mueller-Hinton broth); assay type: cell-based; conditions: Staphylococcus aureus
Procedure: as §1, §2, §3, §4

[3] = tested on: Glycopeptide intermediate-resistant (GISA) S. aureus Mu-50 (ATCC 700695); experiment: MIC determination (EUCAST, Mueller-Hinton broth); assay type: cell-based; conditions: Staphylococcus aureus, ATCC700695
Procedure: as §1, §2, §3, §4

S. aureus Mu50 GISA = experiment: Killing curve (CFU counting); assay type: cell-based, Staphylococcus aureus; conditions: Triafluocyl 20 μg/ml vs high dose of Minocycline; FIG. 8B
Procedure: S. aureus Mu50 GISA was grown overnight in brain heart infusion (BHI) medium, diluted 1:100 in fresh BHI, and incubated aerobically at 37° C. until bacteria growth reached a logarithmic phase (OD600=0.25-0.3).
[…] Bacterial growth was measured after different time intervals by counting the colony-forming units after plating appropriate culture dilutions on BHI agar plates.

S. aureus ATCC 6538 = experiment: MBC and MDK99.9 determination (CFU counting); assay type: cell-based, Staphylococcus aureus
Procedure: as §1
MBC and MDK99.9 determination: A single colony selected from the different strains of S. aureus is resuspended and cultured in the appropriate medium (TSB, or BHI) overnight (O/N) in aerobic conditions (37° C. with 220 rpm shaking), next day a 1:100 inoculum in the appropriate medium was incubated in aerobic conditions for 2 h. The culture is then challenged with triafluocyl at MIC concentration or higher concentrations. Bacterial growth was measured after different time intervals by counting the colony-forming units after plating appropriate culture dilutions on BHI agar plates. […] And the real time needed is defined as the MDK99.9. […]

| MIC (S. aureus ATCC 25904) | MIC [2] | MIC ([3]; S. aureus MU50 GISA) [µM] | MIC ([3]; S. aureus Mu50 GISA) [µg/mL] | SMILES | S. epidermidis biofilm formation [1] | antibacterial effect on S. aureus GISA compared with Minocycline (S. aureus Mu50 GISA) | MDK 99.9 Time (h) needed to kill 99.9% of the started inoculum (S. aureus ATCC 6538) [h] | MBC (S. aureus ATCC 6538; Staphylococcus aureus, ATCC6538, cut-off 99.9% reduction in CFU) [µg/mL] |
| --- | --- | --- | --- | --- | --- | --- | --- | --- |
| 30 to 38 µM | 20 to 30 µM | 30 to 38 |  | CCCSc1nc(N[C@@H]2C[C@H]2c2ccc(F)c(F)c2)c2nnn([C@@H]3C[C@H](O)[C@@H](O)[C@H]3O)c2n1 [Fluometacyl, (1S,2R,3S,4R)-4-[7-[[(1R,2S)-2-(3,4-Difluorophenyl)cyclopropyl]amino]-5-(propylthio)-3H-1,2,3-triazolo[4,5-d]pyrimidin-3-yl]-1,2,3-cyclopentanetriol] | could not form any biofilm |  |  |  |
| 20 µg/mL | 15 µg/mL |  | 20 | CCCSc1nc(N[C@@H]2C[C@H]2c2ccc(F)c(F)c2)c2nnn([C@@H]3C[C@H](OCCO)[C@@H](O)[C@H]3O)c2n1 [Triafluocyl, (1S,2S,3R,5S)-3-[7-[(1R,2S)-2-(3,4-difluorophenyl)cyclopropylamino]-5-(propylthio)-3H-[1,2,3]-triazolo[4,5-d]pyrimidin-3-yl]-5-(2-hydroxyethoxy)-1,2-cyclopentanediol] |  | quicker and more efficient antibacterial effect | 6 | 20 (≈ 38.3 µM) |
